Assay [1] relates to wild type sugar beet protoplasts. Briefly: killing curve for optimal herbicide concentration. It is filed as cell-based, sugar beet (Beta vulgaris L.). Conditions: killing curve (Table 1 and Table 2). The method, then:
The optimal herbicide (ALS inhibitor) concentration used in the method according to the invention was determined from a killing curve concentration for two preferred ALS inhibitors (Foramsulfuron and Ethoxysulfuron) and was established as follows: • To use optimal concentration of herbicide for selection of transformed sugar beet protoplasts, killing curve was developed on wild type sugar beet protoplasts with the following concentrations (Table 1 and Table 2). Based on the results obtained from the killing curve experiments concentration of 5×10^−9M for foramsulfuron and 5×10^−11M for ethoxysulfuron were selected for using with transformed sugar beet protoplasts with pS189 plasmid DNA carrying the mutated BvALS nucleotide sequence.

Assay [2] deals with non-transformed protoplasts. The experiment in a line: control experiment: non-transformed protoplasts on selection media. It is filed as cell-based, sugar beet (Beta vulgaris L.). The procedure: Transformation experiments were performed using plasmid DNA (pS189) according to the standard PEG transformation system under two selection media containing 5×10^−9M foramsulfuron (ALF) and 5×10^−11M ethoxysulfuron (ALE) concentrations. The selection of only the transformed protoplasts were evidenced by the number of calli recovered from each transformation experiment. […] So far seven transformation experiments were performed for ALF and six experiments for ALE. From ALF experiments, about 1799 buds and 89 regenerated plantlets were obtained (Table 3).

Molecules are shown by their SMILES.

Consider `CCOc1ccccc1OS(=O)(=O)NC(=O)Nc1nc(OC)cc(OC)n1` [ethoxysulfuron], for which, in assay [1], the “concentration selected from killing curve experiments for selection of transformed protoplasts” value came out at 0.05 nM. Moreover, the “calli / survival of cells on selection medium” value in assay [2] (selection medium containing 5×10^−11M ethoxysulfuron (ALE)) is listed as “did not result in any calli or survival of cells”.

Take `COc1cc(OC)nc(NC(=O)NS(=O)(=O)c2cc(NC=O)ccc2C(=O)N(C)C)n1` [foramsulfuron]: the “concentration selected from killing curve experiments for selection of transformed protoplasts” value in assay [1] is 5 nM. The “calli / survival of cells on selection medium” value in assay [2] (selection medium containing 5×10^−9M foramsulfuron (ALF)) is given as “did not result in any calli or survival of cells”.
